Results from patent US10167262B2, “Herbicidal substituted 3-arylpyrazoles” (FMC CORPORATION, priority 2014, dated 2019).

Columns and labels:
Assay type in all cases: in vivo
[1] = tested on: ducksalad (Heteranthera limosa); assay: Test B flooded paddy test, plant response rating 0-100; conditions: Flood, 250 g ai/ha; scale 0 to 100 (0 no effect, 100 complete control); 13 to 15 days
Method in brief: (§1)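 Flooded 3 cm over soil; compound into paddy water; depth kept constant. Greenhouse 13–15 d.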

rice (Oryza sativa) = assay: as above; conditions: Flood, 250 g ai/ha; scale 0 to 100 (0 no effect, 100 complete control); 13 to 15 days
Method in brief: as §1

[2] = tested on: sedge, umbrella (small-flower umbrella sedge, Cyperus difformis); assay: as above; conditions: Flood, 250 g ai/ha; scale 0 to 100 (0 no effect, 100 complete control); 13 to 15 days
Method in brief: as §1

[3] = tested on: barnyardgrass (Echinochloa crus-galli); assay: Test C pre-/postemergence greenhouse test, plant response rating 0-100; conditions: Postemergence; for Plant response rating, Barnyardgrass: scale 0 to 100
Method in brief: (§2)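 Two application timings: preemergence onto seeded loam/sand soil and postemergence onto plants at the 1–4 leaf stage (2–18 cm) in peat/vermiculite medium. Formulation: non-phytotoxic solvent with surfactant. Read-out: visual control rating, 0–100, at 13–15 days after treatment.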

[4] = tested on: waterhemp (common waterhemp, Amaranthus rudis); assay: as above
Method in brief: as §2

[5] = tested on: waterhemp_RES2, (ALS & HPPD resistant common waterhemp, Amaranthus rudis); assay: Test E postemergence greenhouse test, plant response rating 0-100; conditions: scale 0 to 100
Description: At the same time, plants from these crop and weed species and also waterhemp_RES1, (ALS & Triazine resistant common waterhemp, Amaranthus rudis), and waterhemp_RES2, (ALS & HPPD resistant common waterhemp, Amaranthus rudis) were planted in pots containing Redi-Earth® planting medium (Scotts Company, 14111 Scottslawn Road, Marysville, Ohio 43041) comprising spaghnum peat moss, vermiculite, wetting agent and starter nutrients were treated with postemergence applications of test chemicals formulated in the same manner. Plants ranged in height from 2 to 18 cm for postemergence treatments (1- to 4-leaf stage).
Treated plants and controls were maintained in a greenhouse for 14 to 21 days, after which time all species were compared to controls and visually evaluated. Plant response ratings, summarized in Table E, are based on a scale of 0 to 100 where 0 is no effect and 100 is complete control. A dash (-) response means no test result.

[6] = Postemergence, 250 g ai/ha, scale 0 to 100

Row | Structure (SMILES) | Plant response rating, Ducksalad [1] | Plant response rating, Rice (rice (Oryza sativa)) | Plant response rating, Sedge, Umbrella [2] | Plant response rating (0 to 100), Barnyardgrass ([3]; 31 g ai/ha) | Plant response rating (0 to 100), Barnyardgrass ([3]; 62 g ai/ha) | Plant response rating, Barnyardgrass ([3]; 125 g ai/ha) | Plant response rating, Barnyardgrass ([3]; 250 g ai/ha) | Plant response rating (0 to 100), Waterhemp ([4]; Postemergence, 62 g ai/ha) | Plant response rating (0 to 100), Waterhemp ([4]; Postemergence, 125 g ai/ha) | Plant response rating, Waterhemp [4, 6] | Plant response rating, Waterhemp_RES2 ([5]; 31 g ai/ha) | Plant response rating, Waterhemp_RES2 ([5]; 125 g ai/ha) | Plant response rating, Waterhemp_RES2 ([5]; 250 g ai/ha) | Plant response rating, Waterhemp_RES2 ([5]; 500 g ai/ha) | Plant response rating, Barnyardgrass ([3]; 500 g ai/ha) | Plant response rating, Waterhemp ([4]; Postemergence, 500 g ai/ha, scale 0 to 100) | Plant response rating, Waterhemp ([4]; Preemergence, 0 to 100 scale (0 no effect, 100 complete control), rate 500 g ai/ha) | Plant response rating, Waterhemp_RES2 ([5]; 62 g ai/ha)
1 | O=C(c1ccccc1)c1cn(S(=O)(=O)CCl)nc1-c1cc(Cl)cc(Cl)c1 [Compound 1] | 0 | 0 | 0 | 0 | 0 | 0 | 0 | 90 | 90 | 98 | 40 | 35 | 98 | 98 | – | – | – | –
2 | O=C(c1ccccc1)c1cn(S(=O)(=O)C(F)(F)F)nc1-c1cc(Cl)cc(Cl)c1 [Compound 2] | 0 | 0 | 0 | – | 0 | 0 | 0 | 85 | 85 | 100 | 0 | 85 | 95 | 98 | 0 | 100 | 100 | 65
